# Assay results taken from patent US9695155B2, “Herbicidal substituted pyrimidinyloxy benzene compounds” (E. I. DU PONT DE NEMOURS AND COMPANY, priority 2013, dated 2017).
# How the values were obtained:
# [1] = tested on: Brazilian crabgrass; assay: Test E postemergence; format: in vivo, Digitaria horizontalis; conditions: Digitaria horizontalis, post-emergence, read-out: Plant response rating, Crabgrass, Brazil; for pest or weed control at 31 g/ha: 31 g ai/ha; for pest or weed control at 62 g/ha: 62 g ai/ha; for pest or weed control at 125 g/ha: 125 g ai/ha; for pest or weed control at 16 g/ha: postemergence, 16 g ai/ha, scale 0 to 100, 0 no effect, 100 complete control
# Description: (§1) Seeds of plant species selected from corn (Zea mays), soybean (Glycine max), velvetleaf (Abutilon theophrasti), lambsquarters (Chenopodium album), wild poinsettia (Euphorbia heterophylla), palmer pigweed (Amaranthus palmeri), waterhemp (common waterhemp, Amaranthus rudis), surinam grass (Brachiaria decumbens), large (Lg) crabgrass (Digitaria sanguinalis), Brazilian crabgrass (Digitaria horizontalis), fall panicum (Panicum dichotomiflorum), giant foxtail (Setaria faberii), green foxtail (Setaria viridis), goosegrass (Eleusine indica), johnsongrass (Sorghum halepense), ragweed (common ragweed, Ambrosia elatior), barnyardgrass (Echinochloa crus-galli), sandbur (southern sandbur, Cenchrus echinatus), arrowleaf sida (Sida rhombifolia), Italian ryegrass (Lolium multiflorum), dayflower (Virginia (VA) dayflower, Commelina virginica), field bindweed (Convolvulus arvensis), morningglory (Ipomoea coccinea), nightshade (eastern black nightshade, Solanum ptycanthum), kochia (Kochia scoparia), yellow nutsedge (Cyperus esculentus), cocklebur (common cocklebur, Xanthium strumarium), smartweed (ladysthumb smartweed, and hairy beggarticks (Bidens pilosa), were planted into a silt loam soil and treated preemergence with test chemicals formulated in a non-phytotoxic solvent mixture which included a surfactant.
# (§2) At the same time, plants from these crop and weed species and also horseweed (Canada horseweed, Conyza canadensis), waterhemp_RES1, (ALS & Triazine resistant common waterhemp, Amaranthus rudis), and waterhemp_RES2, (ALS & HPPD resistant common waterhemp, Amaranthus rudis) were planted in pots containing Redi-Earth® planting medium (Scotts Company, 14111 Scottslawn Road, Marysville, Ohio 43041) comprising spaghnum peat moss, vermiculite, wetting agent and starter nutrients were treated with postemergence applications of test chemicals formulated in the same manner. Plants ranged in height from 2 to 18 cm for postemergence treatments (1- to 4-leaf stage). Treated plants and controls were maintained in a greenhouse for 14 to 21 days, after which time all species were compared to controls and visually evaluated. Plant response ratings, summarized in Table E, are based on a scale of 0 to 100 where 0 is no effect and 100 is complete control. A dash (-) response means no test result.
# [2] = tested on: barnyardgrass; assay: Test E postemergence; format: in vivo, Echinochloa crus-galli; conditions: Echinochloa crus-galli, post-emergence, read-out: Plant response rating, Barnyardgrass; for pest or weed control at 31 g/ha: 31 g ai/ha; for pest or weed control at 62 g/ha: 62 g ai/ha; for pest or weed control at 125 g/ha: 125 g ai/ha; for pest or weed control at 16 g/ha: postemergence, 16 g ai/ha, scale 0 to 100, 0 no effect, 100 complete control
# Description: as §1, §2
# [3] = tested on: hairy beggarticks; assay: Test E postemergence; format: in vivo, Bidens pilosa; conditions: Bidens pilosa, post-emergence, read-out: Plant response rating, Beggarticks; for pest or weed control at 31 g/ha: 31 g ai/ha; for pest or weed control at 62 g/ha: 62 g ai/ha; for pest or weed control at 125 g/ha: 125 g ai/ha; for pest or weed control at 16 g/ha: postemergence, 16 g ai/ha, scale 0 to 100, 0 no effect, 100 complete control
# Description: as §1, §2
# [4] = tested on: corn; assay: Test E postemergence; format: in vivo, Zea mays; conditions: Zea mays, post-emergence; for corn plant response (injury) rating, 0-100 at 31 g/ha: 31 g ai/ha; for corn plant response (injury) rating, 0-100 at 62 g/ha: 62 g ai/ha; for corn plant response (injury) rating, 0-100 at 125 g/ha: 125 g ai/ha; for corn plant response (injury) rating, 0-100 at 16 g/ha: postemergence, 16 g ai/ha, scale 0 to 100, 0 no effect, 100 complete control
# Description: as §1, §2
# [5] = tested on: dayflower; assay: Test E postemergence; format: in vivo, Commelina virginica; conditions: Commelina virginica, post-emergence, read-out: Plant response rating, Dayflower, VA; for pest or weed control at 31 g/ha: 31 g ai/ha; for pest or weed control at 62 g/ha: 62 g ai/ha; for pest or weed control at 125 g/ha: 125 g ai/ha; for pest or weed control at 16 g/ha: postemergence, 16 g ai/ha, scale 0 to 100, 0 no effect, 100 complete control
# Description: as §1, §2
# [6] = tested on: sedge, umbrella; assay: Test C flooded paddy test; format: in vivo, Cyperus difformis; conditions: Flood, scale 0 to 100 (0 no effect, 100 complete control), 13 to 15 days
# Outline: (§3)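 In-water treatment: compound dosed into 3 cm flood over soil, water level unchanged throughout. Controls run alongside; visual assessment at day 13–15.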
# [7] = tested on: barnyardgrass; assay: Test C flooded paddy test; format: in vivo, Echinochloa crus-galli; conditions: Flood, scale 0 to 100 (0 no effect, 100 complete control), 13 to 15 days
# Outline: as §3
# [8] = Postemergence, 250 g ai/ha, scale 0 to 100
SMILES,"pest or weed control at 31 g/ha ([1]; Postemergence, scale 0 to 100) [%]","pest or weed control at 62 g/ha ([1]; Postemergence, scale 0 to 100) [%]","pest or weed control at 125 g/ha ([1]; Postemergence, scale 0 to 100) [%]",pest or weed control at 16 g/ha [1] [%],"pest or weed control at 31 g/ha ([2]; Postemergence, scale 0 to 100) [%]","pest or weed control at 62 g/ha ([2]; Postemergence, scale 0 to 100) [%]","pest or weed control at 125 g/ha ([2]; Postemergence, scale 0 to 100) [%]",pest or weed control at 16 g/ha [2] [%],"pest or weed control at 31 g/ha ([3]; Postemergence, scale 0 to 100) [%]","pest or weed control at 62 g/ha ([3]; Postemergence, scale 0 to 100) [%]","pest or weed control at 125 g/ha ([3]; Postemergence, scale 0 to 100) [%]",pest or weed control at 16 g/ha [3] [%],"corn plant response (injury) rating, 0-100 at 31 g/ha ([4]; Postemergence, scale 0 to 100) [%]","corn plant response (injury) rating, 0-100 at 62 g/ha ([4]; Postemergence, scale 0 to 100) [%]","corn plant response (injury) rating, 0-100 at 125 g/ha ([4]; Postemergence, scale 0 to 100) [%]","corn plant response (injury) rating, 0-100 at 16 g/ha [4] [%]","pest or weed control at 31 g/ha ([5]; Postemergence, scale 0 to 100) [%]","pest or weed control at 62 g/ha ([5]; Postemergence, scale 0 to 100) [%]","pest or weed control at 125 g/ha ([5]; Postemergence, scale 0 to 100) [%]",pest or weed control at 16 g/ha [5] [%],further results
"Clc1cnn(-c2ccccc2Oc2ncc(Br)cn2)c1 [Compound 5, 5-bromo-2-[2-(4-chloro-1H-pyrazol-1-yl)phenoxy]pyrimidine]",5,10,10,0,0,0,0,0,40,60,60,30,0,0,0,0,10,10,40,0,"pest or weed control at 250 g/ha [1, 8]: 20%; pest or weed control at 250 g/ha [2, 8]: 10%; pest or weed control at 250 g/ha [3, 8]: 70%; corn plant response (injury) rating, 0-100 at 250 g/ha [4, 8]: 0%; pest or weed control at 250 g/ha [5, 8]: 75%"
"N#Cc1cccc(Oc2ncc(F)cn2)c1-n1cc(C(F)(F)F)cn1 [Compound 79, 3-[(5-fluoro-2-pyrimidinyl)oxy]-2-[4-(trifluoromethyl)-1H-pyrazol-1-yl]benzonitrile]",10,20,30,0,0,10,20,0,50,75,80,40,0,10,15,0,30,50,50,10,–
"FC(F)c1cnn(-c2ccccc2Oc2ncc(Cl)cn2)c1 [Compound 80, 5-chloro-2-[2-[4-(difluoromethyl)-1H-pyrazol-1-yl]phenoxy]pyrimidine]",–,–,–,–,–,–,–,–,–,–,–,–,–,–,–,–,–,–,–,–,"Plant response rating, Sedge, Umbrella ([6]; 250 g ai/ha): 0; Plant response rating, Sedge, Umbrella ([6]; 500 g ai/ha): 0; Plant response rating, Sedge, Umbrella ([6]; 1000 g ai/ha): 60; Plant response rating, Sedge, Umbrella ([6]; 2000 g ai/ha): 85; Plant response rating, Barnyardgrass ([7]; 250 g ai/ha): 0; Plant response rating, Barnyardgrass ([7]; 500 g ai/ha): 0; Plant response rating, Barnyardgrass ([7]; 1000 g ai/ha): 0; Plant response rating, Barnyardgrass ([7]; 2000 g ai/ha): 0"
N#Cc1cccc(Oc2ncc(Cl)cn2)c1-n1cc(OC(F)F)cn1 [Compound 97],–,–,–,–,–,–,–,–,–,–,–,–,–,–,–,–,–,–,–,–,"Plant response rating, Sedge, Umbrella ([6]; 31 g ai/ha): 60; Plant response rating, Sedge, Umbrella ([6]; 62 g ai/ha): 60; Plant response rating, Sedge, Umbrella ([6]; 125 g ai/ha): 75; Plant response rating, Sedge, Umbrella ([6]; 250 g ai/ha): 80; Plant response rating, Barnyardgrass ([7]; 31 g ai/ha): 0; Plant response rating, Barnyardgrass ([7]; 62 g ai/ha): 0; Plant response rating, Barnyardgrass ([7]; 125 g ai/ha): 0; Plant response rating, Barnyardgrass ([7]; 250 g ai/ha): 0"
